Experimental data: paper PMC10882719 (Frontiers in Neuroscience, 2024)
pKi: −log10 of the molar value. Read-outs that look alike come from different tables or passages of the source.

Key:
[1] = biological target: T1, serotonin (5HT) transporter (SERT) (Rattus norvegicus, UniProt P31652); experiment: Competitive radioligand binding, [3H]citalopram, rat brain membranes
T1 construct: Rat brains were dissected and tissue was homogenized in cold lysis buffer; from tissue; host or cells: rat brain membrane preparation
T1 sequence (P31652 whole entry): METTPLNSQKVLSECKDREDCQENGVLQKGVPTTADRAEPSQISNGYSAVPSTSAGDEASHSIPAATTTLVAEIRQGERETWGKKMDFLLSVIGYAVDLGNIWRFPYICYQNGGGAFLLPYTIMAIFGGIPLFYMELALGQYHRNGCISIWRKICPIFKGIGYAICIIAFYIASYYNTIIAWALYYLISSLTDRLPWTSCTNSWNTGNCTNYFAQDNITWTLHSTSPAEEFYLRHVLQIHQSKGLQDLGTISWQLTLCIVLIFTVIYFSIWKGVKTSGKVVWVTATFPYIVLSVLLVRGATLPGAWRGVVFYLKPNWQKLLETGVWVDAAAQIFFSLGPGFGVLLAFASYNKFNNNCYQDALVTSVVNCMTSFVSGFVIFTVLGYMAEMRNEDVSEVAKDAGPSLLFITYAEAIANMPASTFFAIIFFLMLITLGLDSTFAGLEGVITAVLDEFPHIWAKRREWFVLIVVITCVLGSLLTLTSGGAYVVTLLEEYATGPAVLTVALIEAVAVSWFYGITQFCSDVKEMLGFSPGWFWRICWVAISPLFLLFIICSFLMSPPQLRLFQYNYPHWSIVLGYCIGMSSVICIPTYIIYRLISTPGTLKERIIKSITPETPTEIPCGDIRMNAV
Procedure: (§1) All studies were performed at Gifford Bioscience, Ltd. (Birmingham, UK) according to standard protocols.
(§2) Radioligands used were: [^3H] Citalopram (PerkinElmer NET1039250UC); [^3H] Nisoxetine (PerkinElmer NET1084250UC); [^3H] WIN35428 (PerkinElmer NET1033250UC). Nonspecific compounds used were Citalopram (Tocris Bioscience 1,427); JHW007 (Tocris Bioscience 4,351); Nomifensine (Abcam ab146004). […] Rat brains were dissected and tissue was homogenized in cold lysis buffer, centrifuged at 100xg for 2 min and the supernatant was placed in a fresh tube. Supernatant was centrifuged at 13,000 × g for 10 min at 4°C to re-pellet the cell lysate. The pellet was resuspended in fresh wash buffer (50 mM Tris–HCl; 5 mM MgCl2; 5 mM EDTA) and centrifuged a third time. The pellet was then resuspended in wash buffer containing 10% sucrose as a cryoprotectant, divided into aliquots (0.3 mL) and stored at −80°C. A sample of the homogenate was analyzed for protein content using the Sigma® BCA assay. On the day of the assay, the membrane preparation was thawed and the pellet resuspended in final assay buffer. […] Filters were then dried under a warm air stream, sealed in polyethylene, scintillation cocktail added, and the radioactivity counted in a Wallac® TriLux 1,450 MicroBeta counter. […] Ki was subsequently calculated using the Cheng-Prusoff equation.

[2] = biological target: T2, dopamine (DA) transporter (DAT) (Rattus norvegicus, UniProt P23977); experiment: Competitive radioligand binding, [3H]WIN35428, rat brain membranes
T2 construct: Rat brains were dissected and tissue was homogenized in cold lysis buffer; from tissue; host or cells: rat brain membrane preparation
T2 sequence (P23977 whole entry): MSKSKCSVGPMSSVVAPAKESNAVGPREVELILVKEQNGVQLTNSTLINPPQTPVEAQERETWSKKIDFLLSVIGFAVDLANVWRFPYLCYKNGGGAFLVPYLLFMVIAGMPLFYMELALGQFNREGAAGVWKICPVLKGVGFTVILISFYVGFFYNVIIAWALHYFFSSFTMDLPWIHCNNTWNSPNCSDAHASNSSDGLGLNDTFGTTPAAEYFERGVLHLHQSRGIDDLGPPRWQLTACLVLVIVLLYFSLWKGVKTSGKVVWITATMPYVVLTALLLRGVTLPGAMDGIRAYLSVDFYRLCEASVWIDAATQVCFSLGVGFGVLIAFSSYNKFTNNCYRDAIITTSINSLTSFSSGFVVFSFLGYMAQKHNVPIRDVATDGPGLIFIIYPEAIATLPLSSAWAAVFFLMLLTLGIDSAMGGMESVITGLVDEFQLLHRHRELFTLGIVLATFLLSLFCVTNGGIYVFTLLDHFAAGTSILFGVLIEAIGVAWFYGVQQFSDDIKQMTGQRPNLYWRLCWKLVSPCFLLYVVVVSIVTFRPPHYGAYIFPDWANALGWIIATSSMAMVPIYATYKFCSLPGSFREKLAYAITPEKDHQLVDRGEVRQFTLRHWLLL
Procedure: as §1, §2

5HT2C receptor [3] = biological target: T3, 5HT2C receptor (Homo sapiens, UniProt P28335); experiment: GPCRmax screen, agonist mode, 5HT2C; assay type: cell-based; details: for % Agonist Activity: HTR2C
T3 construct: β-galactosidase enzyme fragment (enzyme fragment complementation reporter); host or cells: PathHunter cell lines
T3 sequence (P28335 33-458): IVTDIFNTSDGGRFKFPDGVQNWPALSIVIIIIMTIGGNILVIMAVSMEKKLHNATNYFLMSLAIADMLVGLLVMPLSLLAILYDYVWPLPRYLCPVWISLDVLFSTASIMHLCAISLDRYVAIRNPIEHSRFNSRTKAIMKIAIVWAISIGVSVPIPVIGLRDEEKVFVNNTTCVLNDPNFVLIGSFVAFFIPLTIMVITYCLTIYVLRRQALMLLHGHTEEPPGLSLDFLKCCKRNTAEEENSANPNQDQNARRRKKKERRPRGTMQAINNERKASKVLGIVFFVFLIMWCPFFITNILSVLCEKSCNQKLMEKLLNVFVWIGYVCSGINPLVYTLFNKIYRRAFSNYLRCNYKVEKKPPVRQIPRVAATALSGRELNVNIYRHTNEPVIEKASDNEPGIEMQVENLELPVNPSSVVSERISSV
Procedure: (§3) Studies were performed at Eurofins DiscoverX Corporation (Fremont, CA) using the GPCRmax assay according to the manufacturer’s protocols. […] Activity greater than 30% typically indicates agonist activity and inhibition greater than 50% indicates antagonist activity. This assay uses enzyme fragment complementation with […] as the functional reporter. When a GPCR is activated, […] is recruited and the reporter is detectable. GPCRmax offers a high-throughput screen of 168 GPCRs for agonist or antagonist activity. Briefly, PathHunter cell lines were propagated, seeded into 384-well microplates and incubated at 37°C. […] Microplates were read following signal generation with a PerkinElmer Envision™ instrument for chemiluminescent signal detection. Compound activity was analyzed using CBIS data analysis suite (ChemInnovation, CA) to determine raw values (RLU). For agonist mode assay, percentage activity was calculated using the following formula: % Activity =100% × (mean RLU of test sample - mean RLU of vehicle control) / (mean MAX control ligand - mean RLU of vehicle control). For antagonist mode assay, percentage inhibition was calculated using the following formula: % Inhibition =100% × (1 - (mean RLU of test sample - mean RLU of vehicle control) / (mean RLU of EC80 control - mean RLU of vehicle control)).

5HT2C receptor [4] = biological target: T3, 5HT2C receptor; experiment: GPCRmax screen, antagonist mode, 5HT2C; assay type: cell-based; details: for % Antagonist Activity: HTR2C
Procedure: as §3

[5] = test system: myelin basic protein (MBP); experiment: Immunohistochemistry of myelin basic protein in brain; assay type: in vivo, rat; details: 10 mg/kg IP, 24 h, vs vehicle
Procedure: The in-life portion of the study was conducted at WuXi Apptec (Cranbury, NJ). Sectioning and staining of brains took place at Neuroscience Associates (NSA, Knoxville, TN). […] Brains were post-fixed in PFA before shipment to NSA for processing and staining. Hemisected brains were mounted, sectioned and stained using standard protocols with myelin-basic protein primary antibody (MBP SMI-99, 1:5000, Biolegend, San Diego, CA) and anti-mouse biotinylated secondary antibody (BA-2001, Vector Laboratories, Newark, CA). Slides were imaged using a Huron Digital Pathology TissueScope LE120 whole slide scanning system. 20x objective was used with a 0.4um/pixel resolution.

PTSD patients (CAPS-5) = details: open-label, 14 PTSD patients; ref Jones et al., 2023; cited from earlier work

| SMILES | pKi ([1]; read-out: Ki, SERT, competitive radioligand binding, rat brain membranes, Cheng-Prusoff) | pKi ([2]; read-out: Ki, DAT, competitive radioligand binding, rat brain membranes, Cheng-Prusoff) | % agonist activity, 5HT2C (5HT2C receptor [3]; 10 μM, cutoff 30% activity) [%] | % Agonist Activity (5HT2C receptor [3]; 1 uM) [%] | % Agonist Activity (5HT2C receptor [3]; 10 uM) [%] | % antagonist activity (inhibition), 5HT2C (5HT2C receptor [4]; Figure 2B, threshold 50% inhibition) [%] | % Antagonist Activity (5HT2C receptor [4]; 1 uM) [%] | % Antagonist Activity (5HT2C receptor [4]; 10 uM) [%] | MBP expression, basolateral nucleus of the amygdala [5] | MBP expression, central nucleus of the amygdala [5] | MBP expression, cortex (control region) [5] | pKi [1] | pKi [2] | Adverse events (PTSD patients (CAPS-5)) | Reduction in CAPS-5 (PTSD patients (CAPS-5)) [point] |
| --- | --- | --- | --- | --- | --- | --- | --- | --- | --- | --- | --- | --- | --- | --- | --- |
| CNC(C)Cc1ccc2c(c1)OCO2 (stereo not shown) [MDMA, 3,4-Methylenedioxy methamphetamine, reference compound] | 5.58 | 5.29 | 28.0 | 15.9 | 28 | 52.2 | 22.5 | 52.2 | significant reduction | significant reduction | No change |  |  |  |  |
| CNC(C)C(=O)c1ccc2c(c1)OCO2 (stereo not shown) [methylone] |  |  |  | 1.4 | 3.7 |  | 21.1 | 24.2 | significant reduction | significant reduction | No change | 5.38 | 5.24 | no significant adverse events | 36.2 |
